Columns and labels:
Experiment in all cases: cells
ES5 = type: functional, cell-based, Homo sapiens; settings: Homo sapiens, ES5;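 further: growth inhibition of human ES5 cells, read out by a cell viability assay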
Description: SANGER: Inhibition of human ES5 cell growth in a cell viability assay.

BB30-HNC = type: functional, cell-based, Homo sapiens; settings: Homo sapiens, BB30-HNC;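 further: growth inhibition of the cultured cell line, read out by a cell viability assay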
Description: SANGER: Inhibition of human BB30-HNC cell growth in a cell viability assay.

NCI-H82 = type: functional, cell-based, Homo sapiens; settings: Homo sapiens, NCI-H82;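 further: growth inhibition of NCI-H82 cells, measured with a cell viability readout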
Description: SANGER: Inhibition of human NCI-H82 cell growth in a cell viability assay.

DMS-114 = type: functional, cell-based, Homo sapiens; settings: Homo sapiens, DMS-114
LB831-BLC = type: functional, cell-based, Homo sapiens; settings: Homo sapiens, LB831-BLC;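 further: growth inhibition of LB831-BLC cells, read out with a cell viability assay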
Description: SANGER: Inhibition of human LB831-BLC cell growth in a cell viability assay.

KNS-42 = type: functional, cell-based, Homo sapiens; settings: Homo sapiens, KNS-42;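 further: growth inhibition of KNS-42 cells, read out with a cell viability assay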
Description: SANGER: Inhibition of human KNS-42 cell growth in a cell viability assay.

MOLT-16 = type: functional, cell-based, Homo sapiens; settings: Homo sapiens, MOLT-16;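 further: growth inhibition of human MOLT-16 cells, read out with a cell viability assay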
Description: SANGER: Inhibition of human MOLT-16 cell growth in a cell viability assay.

NCI-H1648 = type: functional, cell-based, Homo sapiens; settings: Homo sapiens, NCI-H1648;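 further: cell viability assay measuring inhibition of NCI-H1648 cell growth, from the Sanger screening data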
Description: SANGER: Inhibition of human NCI-H1648 cell growth in a cell viability assay.

MSTO-211H = type: functional, cell-based, Homo sapiens; settings: Homo sapiens, MSTO-211H
Description: SANGER: Inhibition of human MSTO-211H cell growth in a cell viability assay.

KARPAS-299 = type: functional, cell-based, Homo sapiens; settings: Homo sapiens, KARPAS-299
Description: SANGER: Inhibition of human KARPAS-299 cell growth in a cell viability assay.

DJM-1 = type: functional, cell-based, Homo sapiens; settings: Homo sapiens, DJM-1;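 further: growth inhibition of human DJM-1 cells, read out by a cell viability assay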
Description: SANGER: Inhibition of human DJM-1 cell growth in a cell viability assay.

ATN-1 = type: functional, cell-based, Homo sapiens; settings: Homo sapiens, ATN-1;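 further: growth inhibition of human ATN-1 cells, read out with a cell viability assay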
Description: SANGER: Inhibition of human ATN-1 cell growth in a cell viability assay.

HuTu80 = type: functional, cell-based, Homo sapiens, HUTU-80; settings: Homo sapiens, HuTu80;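 further: growth inhibition of HuTu80 human cells, determined with a cell viability readout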
Description: SANGER: Inhibition of human HUTU-80 cell growth in a cell viability assay.

OMC-1 = type: functional, cell-based, Homo sapiens; settings: Homo sapiens, OMC-1;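 further: growth inhibition of the OMC-1 cell line, measured by a cell viability assay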
Description: SANGER: Inhibition of human OMC-1 cell growth in a cell viability assay.

KE-37 = type: functional, cell-based, Homo sapiens; settings: Homo sapiens, KE-37;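 further: growth inhibition of KE-37 cells, read out with a cell viability assay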
Description: SANGER: Inhibition of human KE-37 cell growth in a cell viability assay.

K5 = type: functional, cell-based, Homo sapiens; settings: Homo sapiens, K5
Description: SANGER: Inhibition of human K5 cell growth in a cell viability assay.

Lu-65 = type: functional, cell-based, Homo sapiens; settings: Homo sapiens, Lu-65;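 further: growth inhibition of Lu-65 cancer cells, read out by a cell viability assay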
Description: SANGER: Inhibition of human LU-65 cell growth in a cell viability assay.

LB771-HNC = type: functional, cell-based, Homo sapiens; settings: Homo sapiens, LB771-HNC;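 further: growth inhibition of LB771-HNC human cells, read out with a cell viability assay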
Description: SANGER: Inhibition of human LB771-HNC cell growth in a cell viability assay.

ALL-PO = type: functional, cell-based, Homo sapiens; settings: Homo sapiens, ALL-PO;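 further: growth inhibition of ALL-PO cells, read out by a cell viability assay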
Description: SANGER: Inhibition of human ALL-PO cell growth in a cell viability assay.

Ramos-2G6-4C10 = type: functional, cell-based, Homo sapiens; settings: Homo sapiens, Ramos-2G6-4C10;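 further: growth inhibition of the cell line, measured by a cell viability read-out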
Description: SANGER: Inhibition of human Ramos-2G6-4C10 cell growth in a cell viability assay.

LU-139 = type: functional, cell-based, Homo sapiens; settings: Homo sapiens, LU-139
Description: SANGER: Inhibition of human LU-139 cell growth in a cell viability assay.

NB10 = type: functional, cell-based, Homo sapiens; settings: Homo sapiens, NB10;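 further: growth inhibition of NB10 cells, read out by a cell viability assay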
Description: SANGER: Inhibition of human NB10 cell growth in a cell viability assay.

OVCAR-4 = type: functional, cell-based, Homo sapiens; settings: Homo sapiens, OVCAR-4;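 further: growth inhibition of human OVCAR-4 cells, measured with a cell viability assay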
Description: SANGER: Inhibition of human OVCAR-4 cell growth in a cell viability assay.

LB2518-MEL = type: functional, cell-based, Homo sapiens; settings: Homo sapiens, LB2518-MEL;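 further: growth inhibition of human LB2518-MEL cells, measured with a cell viability assay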
Description: SANGER: Inhibition of human LB2518-MEL cell growth in a cell viability assay.

HCC1187 = type: functional, cell-based, Homo sapiens; settings: Homo sapiens, HCC1187;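 further: growth inhibition of HCC1187 cells, read out with a cell viability assay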
Description: SANGER: Inhibition of human HCC1187 cell growth in a cell viability assay.

MHH-NB-11 = type: functional, cell-based, Homo sapiens; settings: Homo sapiens, MHH-NB-11;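 further: growth inhibition of human MHH-NB-11 cells, read out by a cell viability assay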
Description: SANGER: Inhibition of human MHH-NB-11 cell growth in a cell viability assay.

COLO-824 = type: functional, cell-based, Homo sapiens; settings: Homo sapiens, COLO-824
Description: SANGER: Inhibition of human COLO-824 cell growth in a cell viability assay.

EW-18 = type: functional, cell-based, Homo sapiens; settings: Homo sapiens, EW-18;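 further: growth inhibition of EW-18 cells, read out by a cell viability assay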
Description: SANGER: Inhibition of human EW-18 cell growth in a cell viability assay.

TE-11 = type: functional, cell-based, Homo sapiens; settings: Homo sapiens, TE-11;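 further: growth inhibition of human TE-11 cells, read out by a cell viability assay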
Description: SANGER: Inhibition of human TE-11 cell growth in a cell viability assay.

SJSA-1 = type: functional, cell-based, Homo sapiens; settings: Homo sapiens, SJSA-1;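 further: growth inhibition of human SJSA-1 cells, read out through a cell viability measurement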
Description: SANGER: Inhibition of human SJSA-1 cell growth in a cell viability assay.

RS4-11 = type: functional, cell-based, Homo sapiens; settings: Homo sapiens, RS4-11;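 further: growth inhibition of RS4-11 cells, read out by a cell viability assay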
Description: SANGER: Inhibition of human RS4-11 cell growth in a cell viability assay.

D-502MG = type: functional, cell-based, Homo sapiens; settings: Homo sapiens, D-502MG
Description: SANGER: Inhibition of human D-502MG cell growth in a cell viability assay.

NCI-H1650 = type: functional, cell-based, Homo sapiens; settings: Homo sapiens, NCI-H1650;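 further: growth inhibition of human NCI-H1650 cells measured by a cell viability assay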
Description: SANGER: Inhibition of human NCI-H1650 cell growth in a cell viability assay.

LOX IMVI = type: functional, cell-based, Homo sapiens; settings: Homo sapiens, LOX IMVI
Description: SANGER: Inhibition of human LOXIMVI cell growth in a cell viability assay.

HC-1 = type: functional, cell-based, Homo sapiens; settings: Homo sapiens, HC-1;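 further: growth inhibition of HC-1 cells measured by a cell viability assay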
Description: SANGER: Inhibition of human HC-1 cell growth in a cell viability assay.

GI-1 = type: functional, cell-based, Homo sapiens; settings: Homo sapiens, GI-1;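 further: growth inhibition of human GI-1 cells, measured with a cell viability readout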
Description: SANGER: Inhibition of human GI-1 cell growth in a cell viability assay.

TGBC24TKB = type: functional, cell-based, Homo sapiens; settings: Homo sapiens, TGBC24TKB;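 further: growth inhibition of human TGBC24TKB cells, read out with a cell viability assay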
Description: SANGER: Inhibition of human TGBC24TKB cell growth in a cell viability assay.

LS-1034 = type: functional, cell-based, Homo sapiens; settings: Homo sapiens, LS-1034
Description: SANGER: Inhibition of human LS-1034 cell growth in a cell viability assay.

AM-38 = type: functional, cell-based, Homo sapiens; settings: Homo sapiens, AM-38;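 further: growth inhibition of AM-38 cells of human origin, read out by a cell viability assay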
Description: SANGER: Inhibition of human AM-38 cell growth in a cell viability assay.

SCH = type: functional, cell-based, Homo sapiens; settings: Homo sapiens, SCH;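 further: growth inhibition of human SCH cells, read out in a cell viability assay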
Description: SANGER: Inhibition of human SCH cell growth in a cell viability assay.

KM-H2 = type: functional, cell-based, Homo sapiens; settings: Homo sapiens, KM-H2;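 further: growth inhibition of KM-H2 cells, read out by a cell viability assay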
Description: SANGER: Inhibition of human KM-H2 cell growth in a cell viability assay.

SNU-5 = type: functional, cell-based, Homo sapiens; settings: Homo sapiens, SNU-5;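 further: cell viability readout used to measure growth inhibition in human NCI-SNU-5 cells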
Description: SANGER: Inhibition of human NCI-SNU-5 cell growth in a cell viability assay.

COR-L88 = type: functional, cell-based, Homo sapiens; settings: Homo sapiens, COR-L88;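 further: growth inhibition of COR-L88 cells, read out with a cell viability assay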
Description: SANGER: Inhibition of human COR-L88 cell growth in a cell viability assay.

HH = type: functional, cell-based, Homo sapiens; settings: Homo sapiens, HH
Description: SANGER: Inhibition of human HH cell growth in a cell viability assay.

NCI-H226 = type: functional, cell-based, Homo sapiens; settings: Homo sapiens, NCI-H226;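 further: cell viability read-out used to gauge growth inhibition of the cells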
Description: SANGER: Inhibition of human NCI-H226 cell growth in a cell viability assay.

KALS-1 = type: functional, cell-based, Homo sapiens; settings: Homo sapiens, KALS-1;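 further: growth inhibition of KALS-1 cells, determined with a cell viability assay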
Description: SANGER: Inhibition of human KALS-1 cell growth in a cell viability assay.

NEC8 = type: functional, cell-based, Homo sapiens; settings: Homo sapiens, NEC8;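 further: growth inhibition of human NEC8 cells, read out by a cell viability assay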
Description: SANGER: Inhibition of human NEC8 cell growth in a cell viability assay.

SNB-75 = type: functional, cell-based, Homo sapiens; settings: Homo sapiens, SNB-75;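 further: cell viability assay measuring growth inhibition of human SNB-75 cells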
Description: SANGER: Inhibition of human SNB75 cell growth in a cell viability assay.

TGW = type: functional, cell-based, Homo sapiens; settings: Homo sapiens, TGW;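 further: growth inhibition of human TGW cells, read out with a cell viability assay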
Description: SANGER: Inhibition of human TGW cell growth in a cell viability assay.

How did the IC50 (ES5) turn out when `Cc1cn(-c2cc(NC(=O)c3ccc(C)c(Nc4nccc(-c5cccnc5)n4)c3)cc(C(F)(F)F)c2)cn1` [NILOTINIB] was run?
The IC50 was > 2 µM.

What about the IC50 (BB30-HNC) of the same compound?
The IC50 was > 2 µM.

What about the IC50 (NCI-H82) of the same compound?
Its IC50 is > 2 µM.

And the IC50 (DMS-114)?
The IC50 was > 2 µM.

And the IC50 (LB831-BLC)?
Its IC50 is > 2 µM.

What about the IC50 (KNS-42) of the same compound?
Its IC50 is > 2 µM.

And the IC50 (MOLT-16)?
The IC50 was > 2 µM.

What about the IC50 (NCI-H1648) of the same compound?
The IC50 was > 2 µM.

And the IC50 (MSTO-211H)?
The IC50 was > 2 µM.

What about the IC50 (KARPAS-299) of the same compound?
Its IC50 is > 2 µM.

What about the IC50 (DJM-1) of the same compound?
Its IC50 is > 2 µM.

And the IC50 (ATN-1)?
Its IC50 is > 2 µM.

And the IC50 (HuTu80)?
The IC50 was > 2 µM.

And the IC50 (OMC-1)?
Its IC50 is > 2 µM.

And the IC50 (KE-37)?
The IC50 was > 2 µM.

What about the IC50 (K5) of the same compound?
Its IC50 is > 2 µM.

And the IC50 (Lu-65)?
Its IC50 is > 2 µM.

What about the IC50 (LB771-HNC) of the same compound?
Its IC50 is > 2 µM.

And the IC50 (ALL-PO)?
Its IC50 is > 2 µM.

What about the IC50 (Ramos-2G6-4C10) of the same compound?
The IC50 was > 2 µM.

And the IC50 (LU-139)?
The IC50 was > 2 µM.

And the IC50 (NB10)?
Its IC50 is > 2 µM.

What about the IC50 (OVCAR-4) of the same compound?
The IC50 was > 2 µM.

And the IC50 (LB2518-MEL)?
The IC50 was > 2 µM.

What about the IC50 (HCC1187) of the same compound?
Its IC50 is > 2 µM.

What about the IC50 (MHH-NB-11) of the same compound?
Its IC50 is > 2 µM.

What about the IC50 (COLO-824) of the same compound?
Its IC50 is > 2 µM.

And the IC50 (EW-18)?
The IC50 was > 2 µM.

And the IC50 (TE-11)?
The IC50 was > 2 µM.

What about the IC50 (SJSA-1) of the same compound?
Its IC50 is > 2 µM.

And the IC50 (RS4-11)?
Its IC50 is > 2 µM.

What about the IC50 (D-502MG) of the same compound?
The IC50 was > 2 µM.

And the IC50 (NCI-H1650)?
Its IC50 is > 2 µM.

And the IC50 (LOX IMVI)?
Its IC50 is > 2 µM.

And the IC50 (HC-1)?
Its IC50 is > 2 µM.

And the IC50 (GI-1)?
The IC50 was > 2 µM.

And the IC50 (TGBC24TKB)?
The IC50 was > 2 µM.

And the IC50 (LS-1034)?
Its IC50 is > 2 µM.

And the IC50 (AM-38)?
Its IC50 is > 2 µM.

What about the IC50 (SCH) of the same compound?
The IC50 was > 2 µM.

And the IC50 (KM-H2)?
Its IC50 is > 2 µM.

What about the IC50 (SNU-5) of the same compound?
The IC50 was > 2 µM.

What about the IC50 (COR-L88) of the same compound?
Its IC50 is > 2 µM.

What about the IC50 (HH) of the same compound?
The IC50 was > 2 µM.

And the IC50 (NCI-H226)?
The IC50 was > 2 µM.

And the IC50 (KALS-1)?
The IC50 was > 2 µM.

And the IC50 (NEC8)?
The IC50 was > 2 µM.

What about the IC50 (SNB-75) of the same compound?
The IC50 was > 2 µM.

Which results are given for `Cn1cnc2c(F)c(Nc3ccc(Br)cc3Cl)c(C(=O)NOCCO)cc21` [SELUMETINIB]?
IC50 (ES5): > 4 µM; IC50 (BB30-HNC): 2.71 µM; IC50 (NCI-H82): > 4 µM; IC50 (DMS-114): > 4 µM; IC50 (LB831-BLC): > 4 µM; IC50 (KNS-42): > 4 µM; IC50 (MOLT-16): > 4 µM; IC50 (MSTO-211H): > 4 µM; IC50 (KARPAS-299): > 4 µM; IC50 (DJM-1): > 4 µM; IC50 (ATN-1): > 4 µM; IC50 (OMC-1): > 4 µM; IC50 (KE-37): > 4 µM; IC50 (Lu-65): > 4 µM; IC50 (LB771-HNC): > 4 µM; IC50 (ALL-PO): > 4 µM; IC50 (Ramos-2G6-4C10): > 4 µM; IC50 (LU-139): > 4 µM; IC50 (NB10): > 4 µM; IC50 (OVCAR-4): > 4 µM; IC50 (LB2518-MEL): 0.0938 µM; IC50 (HCC1187): > 4 µM; IC50 (MHH-NB-11): > 4 µM; IC50 (COLO-824): > 4 µM; IC50 (EW-18): > 4 µM; IC50 (TE-11): > 4 µM; IC50 (SJSA-1): 3.78 µM; IC50 (RS4-11): > 4 µM; IC50 (D-502MG): > 4 µM; IC50 (NCI-H1650): > 4 µM; IC50 (LOX IMVI): 0.859 µM; IC50 (TGW): > 4 µM; IC50 (GI-1): > 4 µM; IC50 (TGBC24TKB): > 4 µM; IC50 (LS-1034): > 4 µM; IC50 (AM-38): > 4 µM; IC50 (SCH): > 4 µM; IC50 (KM-H2): > 4 µM; IC50 (SNU-5): 3.61 µM; IC50 (COR-L88): > 4 µM; IC50 (HH): > 4 µM; IC50 (NCI-H226): > 4 µM; IC50 (NEC8): > 4 µM; IC50 (SNB-75): > 4 µM

Source: ChEMBL document CHEMBL1201861, “Genomics of Drug Sensitity in Cancer screening data, Wellcome Trust Sanger Institute”
